Where “and” joins values, the source holds several entries; their conditions need not be identical. Equal values may be shown once. Read-outs that look alike come from different tables or passages of the source. Marks after values point to notes of the source that are not given here. Values belong to the compound of their own block, whether it stands above or below them.
Experiments:
Allometric scaling = assay: Allometric scaling; set-up: species or system human; settings: for SSS Human Predicted S9 CLint: exponent 0.75
[1] = type: in vitro ADME
[2] = mouse; ref Hutzler JM, Cerny MA, Yang YS et al. (2014); cited from earlier work
[3] = rat; ref Hutzler JM, Cerny MA, Yang YS et al. (2014); cited from earlier work
[4] = cynomolgus monkey; ref Hutzler JM, Cerny MA, Yang YS et al. (2014); cited from earlier work
[5] = human; ref Hutzler JM, Cerny MA, Yang YS et al. (2014); cited from earlier work
[6] = Incubations with rat hepatic S9; settings: for CLint scaled at 1 μM: male, Sprague-Dawley, Table 1, triplicate, 2–3 experiments; for CLint scaled at 1 μM / E (estimated hepatic extraction ratio) / CLHEP (hepatic clearance): rat; for Fm,AO Method A (fraction metabolized by AO): method A (eq. 4); for Fm,AO Method B (fraction metabolized by AO): method B (eq. 5), values > 1 assumed equal to 1; for E (estimated hepatic extraction ratio): E = CLHEP/QH from hepatic S9 (+NADPH); for CLHEP (hepatic clearance): well-stirred model from S9 CLint (+NADPH), uncorrected for fraction unbound
[7] = Incubations with human hepatic S9; settings: for CLint scaled at 1 μM: both; for CLint scaled at 1 μM / E (estimated hepatic extraction ratio): human; for Fm,AO Method A (fraction metabolized by AO): method A (eq. 4); for Fm,AO Method B (fraction metabolized by AO): method B (eq. 5), values > 1 assumed equal to 1; for E (estimated hepatic extraction ratio): E = CLHEP/QH from hepatic S9 (+NADPH)
[8] = Incubations with mouse hepatic S9; settings: for CLint scaled at 1 μM: male, CD-1, mouse, Table 1, triplicate, 2–3 experiments; for E (estimated hepatic extraction ratio): mouse, E = CLHEP/QH from hepatic S9 (+NADPH)
[9] = Incubations with minipig hepatic S9; settings: for CLint scaled at 1 μM: male, Gottingen, Table 1, triplicate, 2–3 experiments; for CLint scaled at 1 μM / E (estimated hepatic extraction ratio): minipig; for Fm,AO Method A (fraction metabolized by AO) / Fm,AO Method B (fraction metabolized by AO): minipig hepatic S9; for Fm,AO Method A (fraction metabolized by AO): method A (eq. 4); for Fm,AO Method B (fraction metabolized by AO): method B (eq. 5), values > 1 assumed equal to 1; for E (estimated hepatic extraction ratio): E = CLHEP/QH from hepatic S9 (+NADPH)
[10] = Incubations with guinea pig hepatic S9; settings: for Fm,AO Method A (fraction metabolized by AO) / Fm,AO Method B (fraction metabolized by AO): guinea pig hepatic S9; for Fm,AO Method A (fraction metabolized by AO): method A (eq. 4); for Fm,AO Method B (fraction metabolized by AO): method B (eq. 5), values > 1 assumed equal to 1; for E (estimated hepatic extraction ratio): guinea pig, E = CLHEP/QH from hepatic S9 (+NADPH)
[11] = Incubations with rhesus monkey hepatic S9; settings: for Fm,AO Method A (fraction metabolized by AO) / Fm,AO Method B (fraction metabolized by AO): rhesus monkey hepatic S9; for Fm,AO Method A (fraction metabolized by AO): method A (eq. 4); for Fm,AO Method B (fraction metabolized by AO): method B (eq. 5), values > 1 assumed equal to 1; for E (estimated hepatic extraction ratio): rhesus monkey, E = CLHEP/QH from hepatic S9 (+NADPH)
[12] = Incubations with cynomolgus monkey hepatic S9; settings: for Fm,AO Method A (fraction metabolized by AO): method A (eq. 4); for Fm,AO Method B (fraction metabolized by AO): method B (eq. 5), values > 1 assumed equal to 1; for E (estimated hepatic extraction ratio): cynomolgus monkey, E = CLHEP/QH from hepatic S9 (+NADPH)

SMILES: CN1CCC(Nc2ncc3ncnc(Nc4ccc(F)c(Cl)c4)c3n2)CC1 [BIBX1382]
fold-error of human S9 CLint predicted by SSS (Allometric scaling; SSS from guinea pig): outside of 3-fold-error | SSS Human Predicted S9 CLint (Allometric scaling; single-species scaling from cynomolgus monkey S9 CLint): 88.7 mL/min/kg | SSS Human Predicted S9 CLint (Allometric scaling; single-species scaling from mouse S9 CLint): 4.3 mL/min/kg | SSS Human Predicted S9 CLint (Allometric scaling; single-species scaling from rat S9 CLint): 7.5 mL/min/kg | E (estimated hepatic extraction ratio), across species ([1]; human, monkey, and minipig S9): 0.72 – 0.83 | CLp (plasma clearance) [2]: 55^¶ mL/min/kg | CLp (plasma clearance) [3]: 55^¶ mL/min/kg | CLp (plasma clearance) [4]: 118^¶ mL/min/kg | CLp (plasma clearance) [5]: 25–55^¶ mL/min/kg | CLint scaled at 1 μM ([6]; s9, pH 7.4, CLint (intrinsic clearance) in hepatic S9, rat hepatic S9, in the presence of NADPH): 30.7 ± 3.56 mL/min/kg | Fm,AO Method A (fraction metabolized by AO) ([6]; rat hepatic S9): 0.09 | Fm,AO Method B (fraction metabolized by AO) ([6]; rat hepatic S9): 0.69 | Fm,AO (fraction metabolized by AO) ([6]; rat hepatic S9, methods A and B taken together (data from Table 3)): ≤ 0.69 | CLint +NADPH +Hyd ([6]; rat hepatic S9 containing NADPH and hydralazine (50 μM)): 25.1 ± 6.29 mL/min/kg | CLint +NADPH ([6]; rat hepatic S9 containing NADPH, Table 3 data set, triplicate): 27.6 ± 0.995 mL/min/kg | E (estimated hepatic extraction ratio) [6]: 0.30 | CLHEP (hepatic clearance) [6]: 21.3 ± 1.73 mL/min/kg | CLint scaled at 1 μM ([7]; s9, pH 7.4, CLint (intrinsic clearance) in hepatic S9, human hepatic S9, in the presence of NADPH, Table 1, triplicate, 2–3 experiments): 80.2 ± 9.61 mL/min/kg | CLint scaled at 1 μM ([7]; s9, pH 7.4, CLint +NADPH +Hyd, human hepatic S9 containing NADPH and hydralazine (50 μM)): 5.83 ± 1.22 mL/min/kg | CLint scaled at 1 μM ([7]; s9, pH 7.4, CLint −NADPH +Hyd, human hepatic S9 containing hydralazine (50 μM) without NADPH): 3.93 ± 1.75 mL/min/kg | CLint scaled at 1 μM ([7]; s9, pH 7.4, CLint −NADPH, human hepatic S9 without NADPH): 69.6 ± 2.1 mL/min/kg | Fm,AO Method A (fraction metabolized by AO) ([7]; human hepatic S9): 0.92 | Fm,AO Method B (fraction metabolized by AO) ([7]; human hepatic S9): 0.92 | Fm,AO (fraction metabolized by AO) ([7]; human hepatic S9, methods A and B taken together (data from Table 3)): 0.92 | E (estimated hepatic extraction ratio) [7]: 0.79 | CLint scaled at 1 μM ([8]; s9, pH 7.4, CLint (intrinsic clearance) in hepatic S9, mouse hepatic S9, in the presence of NADPH): 33.2 ± 7.1 mL/min/kg | E (estimated hepatic extraction ratio) [8]: 0.27 | CLint scaled at 1 μM ([9]; s9, pH 7.4, CLint (intrinsic clearance) in hepatic S9, minipig hepatic S9, in the presence of NADPH): 134 ± 5.69 mL/min/kg | Fm,AO Method A (fraction metabolized by AO) [9]: 0.85 | Fm,AO Method B (fraction metabolized by AO) [9]: 0.96 | E (estimated hepatic extraction ratio) [9]: 0.83 | Fm,AO Method A (fraction metabolized by AO) [10]: 0.65 | Fm,AO Method B (fraction metabolized by AO) [10]: 0.73 | E (estimated hepatic extraction ratio) [10]: 0.54 | Fm,AO Method A (fraction metabolized by AO) [11]: 0.94 | Fm,AO Method B (fraction metabolized by AO) [11]: 0.86 | E (estimated hepatic extraction ratio) [11]: 0.72 | SSS Human Predicted CLp (Single-species scaling; single-species scaling from literature cynomolgus monkey CLp): 56 mL/min/kg and 56.0 mL/min/kg | SSS Human Predicted CLp (Single-species scaling; single-species scaling from literature mouse CLp): 7.2 mL/min/kg | SSS Human Predicted CLp (Single-species scaling; single-species scaling from literature rat CLp): 13.4 mL/min/kg | Fm,AO Method A (fraction metabolized by AO) ([12]; cynomolgus monkey hepatic S9): 1 | Fm,AO Method B (fraction metabolized by AO) ([12]; cynomolgus monkey hepatic S9): 1^# | Fm,AO (fraction metabolized by AO) ([12]; cynomolgus monkey hepatic S9, methods A and B taken together (data from Table 3)): 1.0 | E (estimated hepatic extraction ratio) [12]: 0.80

fold-error of human S9 CLint predicted by SSS (Allometric scaling; SSS from cynomolgus monkey): outside of 3-fold-error | fold-error of human S9 CLint predicted by multispecies allometry (MA) (Allometric scaling; minipig/rhesus/guinea pig combination, CLpred/CLobs): 3.0 | Fm,AO, across species ([1]; all species): 0.03 – 0.68 | E (estimated hepatic extraction ratio), across species ([1]; all species (human, mouse, rat, guinea pig, cynomolgus, rhesus, minipig) hepatic S9): 0.25 – 0.50 | CLint scaled at 1 μM ([6]; hepatic S9, pH 7.4, CLint (intrinsic clearance) in hepatic S9, rat hepatic S9, in the presence of NADPH): 35.3 ± 6.39 mL/min/kg | Fm,AO Method A (fraction metabolized by AO) ([6]; rat hepatic S9): 0.42 | Fm,AO Method B (fraction metabolized by AO) ([6]; rat hepatic S9): 0.28 | E (estimated hepatic extraction ratio) [6]: 0.33 | CLHEP (hepatic clearance) [6]: 23.3 ± 2.85 mL/min/kg | CLint scaled at 1 μM ([7]; hepatic S9, pH 7.4, CLint (intrinsic clearance) in hepatic S9, human hepatic S9, in the presence of NADPH, Table 1, triplicate, 2–3 experiments): 7.1 ± 2.28 mL/min/kg | CLint scaled at 1 μM ([7]; hepatic S9, pH 7.4, CLint −NADPH, human hepatic S9 without NADPH): 4.51 ± 0.31 mL/min/kg | Fm,AO Method A (fraction metabolized by AO) ([7]; human hepatic S9): 0.36 | Fm,AO Method B (fraction metabolized by AO) ([7]; human hepatic S9): 0.61 | E (estimated hepatic extraction ratio) [7]: 0.25 | CLint scaled at 1 μM ([8]; hepatic S9, pH 7.4, CLint (intrinsic clearance) in hepatic S9, mouse hepatic S9, in the presence of NADPH): 39.4 ± 7.19 mL/min/kg | Fm,AO Method A (fraction metabolized by AO) ([8]; mouse hepatic S9, method A (eq. 4)): 0.33 | Fm,AO Method B (fraction metabolized by AO) ([8]; mouse hepatic S9, method B (eq. 5), values > 1 assumed equal to 1): 0.22 | E (estimated hepatic extraction ratio) [8]: 0.30 | CLint scaled at 1 μM ([9]; hepatic S9, pH 7.4, CLint (intrinsic clearance) in hepatic S9, minipig hepatic S9, in the presence of NADPH): 25.4 ± 1.46 mL/min/kg | Fm,AO Method A (fraction metabolized by AO) [9]: 0.18 | Fm,AO Method B (fraction metabolized by AO) [9]: 0.12 | E (estimated hepatic extraction ratio) [9]: 0.48 | Fm,AO Method A (fraction metabolized by AO) [10]: 0.23 | Fm,AO Method B (fraction metabolized by AO) [10]: 0.03 | E (estimated hepatic extraction ratio) [10]: 0.41 | Fm,AO Method A (fraction metabolized by AO) [11]: 0.34 | Fm,AO Method B (fraction metabolized by AO) [11]: 0.14 | E (estimated hepatic extraction ratio) [11]: 0.40 | Fm,AO Method A (fraction metabolized by AO) ([12]; cynomolgus monkey hepatic S9): 0.58 | Fm,AO Method B (fraction metabolized by AO) ([12]; cynomolgus monkey hepatic S9): 0.68 | E (estimated hepatic extraction ratio) [12]: 0.50
SMILES: Cn1cc(-c2ccc3nnc(Sc4ccc5ncccc5c4)n3n2)cn1 [SGX523]

— article PMC6207370 (Xenobiotica; the fate of foreign compounds in biological …, 2017)
